Data published in PubChem BioAssay AID1626 (SRMLSC, 2009).
pIC50: −log10 of the molar value.

Test system: M. tuberculosis H37Rv growth inhibition
Assay: M. tuberculosis H37Rv growth inhibitors, H37Rv strain (AID 1626)
Details: for IC90: measured here: IC90 against H37Rv; for CC50: measured here: Vero cell cytotoxicity

## COC(=O)CSc1ccc(C#N)c(SCC(=O)OC)c1
  pIC50: 5.49
  IC90: 10.4 µM

## O=C1Nc2ccccc2/C1=N\N=C\C1=C(N2CCOCC2)C(=C\c2ccccc2)/CC1
  pIC50: 5.89
  IC90: 1.86 µM
  CC50: > 40 µM

## Cc1cc(C)cc(NC(=O)c2ccc([N+](=O)[O-])o2)c1
  pIC50: 5.02
  IC90: 22.6 µM
  CC50: 9.81 µM

## COc1ccccc1-c1nc(-c2ccccc2)nc(N2CCN(C)CC2)c1C#N
  pIC50: 4.78
  IC90: 22 µM
  CC50: > 40 µM

## Clc1ccc(OCCCNCc2ccccc2)c(Br)c1
  pIC50: 4.64
  IC90: 25.1 µM
  CC50: > 40 µM

## Cc1[nH]nc2c1C(c1ccc(-c3ccc(Cl)cc3)o1)C(C#N)=C(N)O2 (configuration not stated)
  pIC50: 6.13
  IC90: 91.5 µM
  CC50: > 40 µM

## CC(C)[C@H]1C(=O)O[C@H](C(C)C)C(=O)N(C)[C@@H](C(C)C)C(=O)O[C@H](C(C)C)C(=O)N(C)[C@@H](C(C)C)C(=O)O[C@H](C(C)C)C(=O)N1C
  pIC50: 5.14
  IC90: 8.9 µM
  CC50: 12.3 µM

## N#Cc1c(SCC(N)=O)nsc1SCc1ccccc1Cl
  pIC50: 4.92
  IC90: 14.5 µM

## O=C(NCCC1=CCCCC1)NC12CC3CC(CC(C3)C1)C2
  pIC50: > 6.71
  IC90: 67.6 µM

## O=C(c1cc2nc(-c3ccccc3)cc(-c3ccccc3)n2n1)N1CCN(C(=O)c2ccco2)CC1
  pIC50: 5.23
  IC90: 17.6 µM
  CC50: > 40 µM

## CC(=O)Nc1cccc(C(=O)/C=C/c2ccc(Br)cc2)c1
  pIC50: 5.19
  IC90: 9.82 µM
  CC50: 10.7 µM

## CN(CCCC[C@H](CNCc1ccc(-c2ccccc2)cc1)N1C[C@H](c2ccccc2)N(CCc2ccc(Cl)c(Cl)c2)C(=O)C1=O)Cc1ccc(-c2ccccc2)cc1
  pIC50: 5.30
  IC90: 5.61 µM
  CC50: 6.12 µM

## CC1C(c2ccccc2)N(C)C(c2ccccc2)CC1(O)c1ccccc1 (configuration not stated)
  pIC50: 5.23
  IC90: 6.61 µM
  CC50: > 40 µM

## O=C1N=C(N2CCN(c3cccc4ccccc34)CC2)S/C1=C/c1cccs1
  CC50: > 40 µM

## Nc1ccccc1Nc1ccccc1
  pIC50: > 6.71
  IC90: 0.973 µM

## N#CC(C#N)=c1ccc2c(c1)N1C(c3ccccc3)=CC(c3ccccc3)C3CCCCC31N=2 (configuration not stated)
  pIC50: 4.55
  IC90: > 100 µM

## CCOC(=O)COc1ccc2c(C#N)c3ccccn3c2c1
  pIC50: 5.78
  IC90: 8.66 µM

## Cc1ccc(-c2csc(NC(=O)C[n+]3cc(-c4ccc(C)cc4)n4c3CCC4)n2)cc1
  pIC50: 4.95
  IC90: 12.6 µM

## Cc1ccc2c(c1C)NC(=O)C21N2CCCC2C(C(=O)c2ccc3ccccc3c2)C12C(=O)Nc1ccccc12 (configuration not stated)
  pIC50: 4.41
  IC90: > 100 µM
  CC50: > 40 µM

## Cc1cccc(CSc2nnc(CCCCCNC(=O)OC(C)(C)C)o2)c1
  pIC50: 4.82
  IC90: 21.3 µM
  CC50: > 40 µM

## Cc1ccc(C)c(N=Nc2nc3ccccc3n2C)c1
  pIC50: 5.88
  IC90: 1.7 µM
  CC50: > 40 µM

## O=C(Nc1nc2ccc(F)cc2s1)c1ccccn1
  pIC50: > 6.71
  IC90: 0.248 µM
  CC50: 3.01 µM

## Cc1ccc(-c2nc(NCc3ccco3)c3ccccc3n2)cc1
  pIC50: 5.03
  IC90: 16.2 µM
  CC50: > 40 µM

## N=C1SC(c2ccccc2)C(=O)N1c1ncc(Cc2ccccc2)s1 (configuration not stated)
  pIC50: 4.59
  IC90: > 100 µM
  CC50: 34.9 µM

## O=C(Nc1nnc(-c2ccc3c(c2)OCCO3)o1)c1ccc(Cc2ccccc2)cc1
  pIC50: 5.77
  IC90: > 100 µM
  CC50: 38.1 µM

## COc1ccc(NC(=O)CN(C)CC(=O)Nc2ccc3c(c2)CCC3)cc1
  pIC50: 4.69
  IC90: > 100 µM

## CSc1ccc(N=Nc2c(C)[nH]n(C)c2=O)cc1
  pIC50: 5.13
  IC90: > 100 µM
  CC50: > 40 µM

## NC1=NC[C@H](Cc2ccc(O)cc2)N1CCC12CC3CC(CC(C3)C1)C2
  pIC50: 5.23
  IC90: 9.05 µM

## Cc1c(C(=O)N2CCCCC2)sc(NC(=O)C23CC4CC(CC(C4)C2)C3)c1C#N
  pIC50: 4.39
  IC90: > 100 µM

## CC(=O)Oc1c(-c2ccco2)oc2ccccc2c1=O
  pIC50: 4.29
  IC90: > 100 µM

## CC(=O)Nc1ccc(Nc2cc(C)nc3c(-c4ccccc4)c(C)nn23)cc1
  IC90: > 100 µM
  CC50: > 40 µM

## O=C(NC1CCCCC1)C(c1ccc2ncccc2c1)N(Cc1ccc2c(c1)OCO2)C(=O)c1ccc2c(c1)OCCO2 (configuration not stated)
  pIC50: 4.90
  IC90: > 100 µM
  CC50: > 40 µM

## CCOc1ccc(N2CC(=O)Nc3ccccc3NCC2=O)cc1
  pIC50: 4.90
  IC90: > 100 µM

## Cc1cc(=O)oc2cc(Oc3ccc([N+](=O)[O-])cc3C(F)(F)F)ccc12
  pIC50: 4.91
  IC90: > 100 µM

## CCC(CC)c1nnc(NC(=O)c2ccc3ccccc3n2)s1
  pIC50: 6.09
  IC90: 1.48 µM
  CC50: 35.7 µM

## COc1cccc(NC(=O)c2cc(-c3ccncc3)nc3c(C)cc(C)cc23)c1
  pIC50: 4.96
  IC90: 18.5 µM
  CC50: > 40 µM

## C=C(C)C1Cc2c(C)nn(-c3nc(C)cc(C)n3)c2C1 (configuration not stated)
  pIC50: 5.00
  IC90: > 100 µM
  CC50: > 40 µM

## COC(=O)CSc1nc2c(c(-c3ccco3)c1C#N)CCCC2
  pIC50: 5.51
  IC90: 3.39 µM

## COc1ccc(NC(=O)CSCc2ccc(C)cc2)cc1
  pIC50: 4.58
  IC90: > 100 µM

## Cc1nc(C)c(/C(O)=C/c2nc3ccccc3oc2=O)s1
  pIC50: > 6.71
  IC90: > 100 µM

## CCCCCC(=O)c1ccc(O)cc1O
  pIC50: 4.20
  IC90: > 100 µM

## Cc1ccc2c(c1)c1c3n2CCN=C3CCC1
  pIC50: 5.13
  IC90: 15.8 µM

## COc1ccc(-c2n(CC(=O)OC3CC(C)CCC3C(C)C)c3ccccc3[n+]2C)cc1 (configuration not stated)
  pIC50: 6.01
  IC90: 2.37 µM
  CC50: 23.9 µM

## O=C(CNCc1ccccc1)Nc1ccc(Oc2ccccc2)cc1
  pIC50: 4.88
  IC90: > 100 µM

## Cc1ccc(NC(=O)c2nc[nH]c2C(=O)N[C@@H](C)c2ccccc2)cc1
  pIC50: 5.67
  IC90: 6.42 µM
  CC50: > 40 µM

## CCCCCOC(=O)c1ccc(OC(=O)c2cncc(Br)c2)cc1
  pIC50: 4.94
  IC90: > 100 µM

## Cc1cccc(C(=O)Nc2nnc(-c3ccco3)o2)c1
  pIC50: 6.16
  IC90: 3.56 µM
  CC50: 37.1 µM

## CCOc1ccc(N=C(/C(C(=O)C(=O)N2CCOCC2)=C(\O)c2ccccc2)c2ccccc2)cc1
  pIC50: 4.41
  IC90: > 100 µM

## CCOC(=O)c1ccc(NC(=O)Cn2cccc2)cc1
  IC90: > 100 µM

## COC(=O)CSc1nc2ccc(NC(=O)c3ccccc3C(=O)N3CCOCC3)cc2s1
  pIC50: 5.05
  IC90: > 100 µM

## O=C(Nc1cccc2ccccc12)c1ccc([N+](=O)[O-])s1
  pIC50: 4.29
  IC90: > 100 µM

## O=C(Nc1ncc(Cc2ccccc2)s1)C1=NCCN1
  pIC50: 4.94
  IC90: > 100 µM
  CC50: > 40 µM

## O=C1CC(/C=C/c2ccc(Cl)cc2)=Nc2ccccc2N1
  pIC50: 5.17
  IC90: > 100 µM
  CC50: 38.6 µM

## O=[N+]([O-])c1ccc(-n2nnnc2-c2ccccc2)c([N+](=O)[O-])c1
  pIC50: 5.24
  IC90: 9.88 µM
  CC50: 10.7 µM

## COc1ccc(N=C2C(=O)Nc3ccccc32)cc1
  IC90: > 100 µM

## Cc1cccc(OCCCCc2c(C)n[nH]c2C)c1C
  pIC50: 5.56
  IC90: 3.87 µM
  CC50: 30.2 µM

## CCn1ccnc1CN(C)Cc1cn(-c2cc(C)ccc2C)nc1-c1ccccc1
  pIC50: 5.23
  IC90: 10.3 µM

## O=c1oc(/C=C/c2ccccc2)nc2ccccc12
  pIC50: 4.90
  IC90: > 100 µM
